Test results reported in patent publication US20100256357A1, “HETEROCYCLES USEFUL AS INHIBITORS OF CARBONIC ANHYDRASE” (Agouron Pharmaceuticals, Inc., priority 2006, published 2010).
Like-named read-outs stand apart in the source and are kept apart here.

Experiments:
[1] = target: T1, human CA-IX (Homo sapiens, UniProt Q16790); assay: Carbonic Anhydrase-IX (CA-IX) Fluorescence Polarization Assay-IC50 Determination; type: binding; details: read-out: CAIX IC50
T1 construct: purchased R&D Systems Inc. 2188-CA-010
Protocol: Carbonic Anhydrase-IX (CA-IX) Fluorescence Polarization Assay-IC50 Determination
Compounds were diluted in DMSO at the concentration of 1 mM, then 50 μM and transferred to a 96-well plate for further dilutions (1:3 dilution, 11 points) in duplicate. Final compound highest concentration in CA-IX FP assay is 1 μM. Assays were conducted in a final volume of 100 μL in 50 mM Tris/HCl (pH 7.6), 100 mM Na2SO4 and 0.005% Tween-20 in a 96-well black assay. plate. […] was used as the tracer. Binding inhibition was determined by pipetting 8 μL of human CA-IX (8 nM, R&D Systems Inc. Cat#2188-CA-010) into assay plate contained 2 μL of compound and 2 μL of tracer (2 nM) in 88 μL of assay buffer. The assay plate was incubated at room temperature for 30 minutes and read in the fluorescence polarization reader (Molecular Devices, Analyst) at 524/45 nm (excitation), 595/60 nm (emission) and 561 nm (bean splitter). […] GraphPad Prism or similar in-house software with the IC50 curve fitting using the four parameter logistic equation.

[2] = target: T2, human CA-IV (Homo sapiens, UniProt P22748); assay: Carbonic Anhydrase-IV (CA-IV) Fluorescence Polarization Assay-IC50 Determination; type: binding
T2 construct: made in house; host or cells: Escherichia coli BL21(DE3)
T2 sequence (P22748 19-284 limits assumed): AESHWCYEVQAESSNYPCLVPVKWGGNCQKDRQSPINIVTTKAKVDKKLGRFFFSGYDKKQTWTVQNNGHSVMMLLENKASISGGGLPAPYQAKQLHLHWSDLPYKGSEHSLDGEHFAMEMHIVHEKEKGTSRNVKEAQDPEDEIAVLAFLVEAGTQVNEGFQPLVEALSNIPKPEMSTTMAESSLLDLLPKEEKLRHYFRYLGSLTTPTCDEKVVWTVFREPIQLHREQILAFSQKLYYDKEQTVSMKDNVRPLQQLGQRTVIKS
Procedure, shortened: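 Recombinant CA-IV expressed with 800 uM ZnCl2, purified by SP-Sepharose and Sephacryl S-100 in 25 mM Tris-HCl pH 7.0, 100 mM NaCl, concentrated to 7.0 mg/mL. IC50 by fluorescence polarization.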

[3] = target: T3, human CA-II (Homo sapiens, UniProt P00918); assay: Carbonic Anhydrase-II (CA-II) Fluorescence Polarization Tight Binding Assay-Kd Determination
T3 construct: purchased Sigma-Aldrich C6165
Protocol: Assays were conducted in a final volume of 100 μL in 50 mM Tris/HCl (pH 7.6), 100 mM Na2SO4 and 0.005% Tween-20 in a 96-well black assay plate. […] The assay plate was
The Kd binding was calculated using GraphPad Prism and Morrison tight binding ligand equation.

[4] = target: CAI (Homo sapiens, UniProt P00915); assay: CAI IC50 (no method described); type: biochemical
Sequence of CAI (P00915 whole entry, species assumed): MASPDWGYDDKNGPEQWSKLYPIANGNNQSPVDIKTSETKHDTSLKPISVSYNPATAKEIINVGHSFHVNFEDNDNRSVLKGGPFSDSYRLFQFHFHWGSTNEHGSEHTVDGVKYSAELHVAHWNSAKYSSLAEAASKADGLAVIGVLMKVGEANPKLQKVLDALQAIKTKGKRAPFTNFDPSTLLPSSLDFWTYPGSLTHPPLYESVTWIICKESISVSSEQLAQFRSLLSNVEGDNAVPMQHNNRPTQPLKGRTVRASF

[5] = target: T4, human CA-XII (Homo sapiens, UniProt O43570); assay: Carbonic Anhydrase-XII (CA-XII) Fluorimetric Assay-IC50 Determination; type: biochemical; details: for inhibition at 1 µM: read-out: % inh CAXII @ 1 uM; for IC50: read-out: CAXII IC 50
T4 construct: made in house; host or cells: Escherichia coli AD494 (DE3)
T4 sequence (O43570 30-289 limits assumed): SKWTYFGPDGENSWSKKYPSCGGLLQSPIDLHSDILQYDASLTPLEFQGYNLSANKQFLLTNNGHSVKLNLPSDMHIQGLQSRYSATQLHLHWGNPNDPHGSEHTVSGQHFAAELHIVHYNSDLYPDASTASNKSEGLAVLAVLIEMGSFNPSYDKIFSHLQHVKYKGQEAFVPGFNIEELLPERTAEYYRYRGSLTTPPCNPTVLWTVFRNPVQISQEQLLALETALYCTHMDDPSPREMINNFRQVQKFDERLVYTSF
Protocol: Carbonic Anhydrase-XII (CA-XII) Fluorimetric Assay-IC50 Determination
The cells were grown in LB (Biomyx) supplemented with 800 uM ZnCl2 at 37° C. until an O.D.600 of 0.7, at which point the cells were induced with 100 uM IPTG for 20 hours at 20° C. The frozen pellet was resuspended in 50 mM MES pH 6.0, 100 mM NaCl, 800 uM ZnCl2 and EDTA-Free protease inhibitors (Roche). The cells were lysed with a microfluidizer and the lysate was spun at 40,000 rpm for 45 minutes at 4° C. The soluble fraction was then put over a 100 ml SP-Sepharose High Performance (GE Healthcare) column and eluted with a 50 mM MES pH 6.0, 750 mM NaCl gradient.
Compounds were diluted in DMSO at the concentration of 1 mM, then 50 μM and transferred to a 96-well plate for further dilutions (1:3 dilution, 11 points) in duplicate. Final compound highest concentration in CA-XII Fluorimetric assay is 1 μM. Assays were conducted in a final volume of 100 μL in 50 mM Tris/HCl (pH 7.6), 100 mM Na2SO4 and 0.005% Tween-20 in a 96-well black assay plate. Fluorescein diacetate was used as the substrate. Enzyme inhibition was determined by pipetting 8 μL of human CA-XII (50 nM) into assay plate contained 2 μL of compound and 2 μL of substrate (10 μM) in 88 μL of assay buffer.

[6] = target: T3, human CA-II; assay: Carbonic Anhydrase-II (CA-II) Fluorimetric Assay-IC50 Determination; type: biochemical
Procedure, shortened: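 Compounds were tested as an 11-point, 1:3 dilution series in duplicate, with a top final concentration of 1 μM, in 50 mM Tris/HCl pH 7.6, 100 mM Na2SO4 and 0.005% Tween-20. Human CA-II activity was followed as the rate of fluorescein diacetate hydrolysis at 25° C, with excitation at 488 nm and emission at 538 nm.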

Structure (SMILES)	IC50 [1] [nM]	IC50 ([2]; read-out: IC50_CAIV) [nM]	also measured
CCCCN(C)C(=O)c1nc(Cc2ccccc2)n(-c2ccc(S(N)(=O)=O)cc2F)n1	2.79	–	–
CN(CCc1ccccc1)Cc1cn(Cc2ccccc2F)c(-c2ccc(S(N)(=O)=O)cc2)n1 [CCC-1a, 4-(1-(2-fluorobenzyl)-4-{[methyl(2-phenylethyl)amino]methyl}-1H-imidazol-2-yl)benzenesulfonamide]	39.3	–	–
CN(CCc1ccccc1)C(=O)c1nc(Cc2ccccc2)n(-c2ccc(S(N)(=O)=O)cc2F)n1 [Example A-1d, 1-[4-(aminosulfonyl)-2-fluorophenyl]-5-benzyl-N-methyl-N-(2-phenylethyl)-1H-1,2,4-triazole-3-carboxamide]	2.94	–	–
CN(CCN1CCOCC1)C(=O)c1nc(Cc2ccccc2)n(-c2ccc(S(N)(=O)=O)cc2F)n1 [Example A-1k, 1-[4-(aminosulfonyl)-2-fluorophenyl]-5-benzyl-N-methyl-N-(2-morpholin-4-ylethyl)-1H-1,2,4-triazole-3-carboxamide]	–	148	Kd ([3]; read-out: Kd_CAII): 0.22 nM; IC50 [4]: 23 nM
CN(C)[C@H]1CCN(C(=O)c2nc(Cc3ccccc3)n(-c3ccc(S(N)(=O)=O)cc3F)n2)C1 [Example A-1m, 4-(5-benzyl-3-{[(3S)-3-(dimethylamino)pyrrolidin-1-yl]carbonyl}-1H-1,2,4-triazol-1-yl)-3-fluorobenzenesulfonamide]	–	429	Kd ([3]; read-out: Kd_CAII): 0.2 nM; IC50 [4]: 21 nM
C[C@@H]1CN(Cc2nc(Cc3ccccc3)n(-c3ccc(S(N)(=O)=O)cc3F)n2)C[C@H](C)O1 [Example F-1, 4-(5-Benzyl-3-{[2,6-cis-dimethylmorpholin-4-yl]methyl}-1H-1,2,4-triazol-1-yl)-3-fluorobenzenesulfonamide]	26.1	–	–
CCCN(C)Cc1nc(Cc2cccc(C)c2)n(-c2ccc(S(N)(=O)=O)cc2F)n1 [Example F-1aj, 3-fluoro-4-[5-(3-methylbenzyl)-3-{[methyl(propyl)amino]methyl}-1H-1,2,4-triazol-1-yl]benzenesulfonamide]	4.32	–	–
Cc1cccc(Cc2nc(CN(C)C3CCCC3)nn2-c2ccc(S(N)(=O)=O)cc2F)c1 [Example F-1ak]	3.83	–	–
CN(Cc1nc(Cc2ccccc2)n(-c2ccc(S(N)(=O)=O)cc2F)n1)C1CCCCC1 [Example F-1aq, 4-(5-benzyl-3-{[cyclohexyl(methyl)amino]methyl}-1H-1,2,4-triazol-1-yl)-3-fluorobenzenesulfonamide]	9.41	–	–
NS(=O)(=O)c1ccc(-n2nc(CN3CC=CCC3)nc2Cc2cccc(Br)c2)cc1 [Example F-1z, 4-[5-(3-bromobenzyl)-3-(3,6-dihydropyridin-1(2H)-ylmethyl)-1H-1,2,4-triazol-1-yl]benzenesulfonamide]	7.99	–	–
CCCCN(C)Cc1nc(Cc2ccccc2)n(-c2ccc(S(N)(=O)=O)cc2F)n1 [Example G-1b, 4-(5-benzyl-3-{[butyl(methyl)amino]methyl}-1H-1,2,4-triazol-1-yl)-3-fluorobenzenesulfonamide]	9.01	–	–
Cc1nc(C(=O)O)nn1-c1ncc(S(N)(=O)=O)cn1 [Example I-5b, 1-[5-(aminosulfonyl)pyrimidin-2-yl]-5-methyl-1H-1,2,4-triazole-3-carboxylic acid]	–	> 1000	inhibition at 1 µM [5]: 46%; IC50 [5]: > 1000 nM; IC50 ([6]; read-out: IC50—CAII): 57.9 nM
Cc1cccc(Cc2nc(C)nn2-c2ccc(S(N)(=O)=O)c(F)c2F)c1 [Example Q-1, 2,3-Difluoro-4-[3-methyl-5-(3-methylbenzyl)-1H-1,2,4-triazol-1-yl]benzenesulfonamide]	–	–	% printed in column IC50_CAIV ([2]; @ 5 uM): 51% @ 5 uM; % printed in column IC50—CAII ([6]; 69 0.010 nM (so in the source)): 0% 69 0.010 nM; IC50 [4]: 4610 nM

Second part, led by results:

IC50 [1] [nM]	IC50 ([2]; read-out: IC50_CAIV) [nM]	Structure (SMILES)	also measured
35.6	–	NS(=O)(=O)c1ccc(-n2ncnc2Cc2ccccc2)cc1 [Example L-1a, 4-(5-benzyl-1H-1,2,4-triazol-1-yl)benzenesulfonamide]	–
–	486	CC(C)OC(=O)c1nc(Cc2ccccc2)n(-c2ccc(S(N)(=O)=O)cc2)n1 [Example P-1, Isopropyl 1-[4-(aminosulfonyl)phenyl]-5-benzyl-1H-1,2,4-triazole-3-carboxylate]	Kd ([3]; read-out: Kd_CAII): 0.15 nM; IC50 [4]: 41 nM
53.3	–	COC[C@H](C)NC(=O)c1nc(Cc2ccccc2)n(-c2ccc(S(N)(=O)=O)cc2)n1 [Example R-21, 1-[4-(aminosulfonyl)phenyl]-5-benzyl-N-[(1S)-2-methoxy-1-methylethyl]-1H-124-triazole-3-carboxamide]	inhibition at 0.2 µM ([2]; CA-IV Min dose 200 nM, read-out: CA-IV: % Inh @ Min dose): 53.6%; IC50 ([2]; read-out: CA-IV IC50): 356 nM; inhibition at 0.1 µM ([6]; CA II Min dose 100 nM, read-out: CAII % Inh @ Min dose): 100%; Kd ([3]; read-out: CA-II Kd): 0.09 nM
–	2390	Cc1cc(C(=O)N(C)C)nn1-c1ccc(S(N)(=O)=O)cn1 [MM-1b, 1-[5-(aminosulfonyl)pyridin-2-yl]-N,N,5-trimethyl-1H-pyrazole-3-carboxamide]	inhibition at 1 µM [5]: 96%; IC50 [5]: 66.5 nM
–	2950	Cc1cc(C(=O)N2CCN(C)CC2)nn1-c1ccc(S(N)(=O)=O)cn1 [MM-1c, 6-{5-methyl-3-[(4-methylpiperazin-1-yl)carbonyl]-1H-pyrazol-1-yl}pyridine-3-sulfonamide]	inhibition at 1 µM [5]: 86%; IC50 [5]: 166 nM
5.18	–	CN(Cc1cc(Cc2ccc(Cl)cc2)n(-c2ccc(S(N)(=O)=O)cc2)n1)C1CCCCC1 [QQ-10]	–
36.9	–	Cc1nc(Cc2cccc(F)c2)n(-c2ccc(S(N)(=O)=O)cc2)n1 [f-3a, 4-[5-(3-fluorobenzyl)-3-methyl-1H-1,2,4-triazol-1-yl]benzenesulfonamide]	–
8.11	–	COCc1nc(Cc2cccc(Br)c2)n(-c2ccc(S(N)(=O)=O)cc2)n1 [f-3g, 4-[5-(3-bromobenzyl)-3-(methoxymethyl)-1H-1,2,4-triazol-1-yl]benzenesulfonamide]	–
13.5	284	NS(=O)(=O)c1ccc(-n2nc(CO)cc2Cc2ccc(Cl)cc2)cc1 [qq-3a, 4-[5-(4-chlorobenzyl)-3-(hydroxymethyl)-1H-pyrazol-1-yl]benzenesulfonamide]	–
